We go through eight compounds from PubChem BioAssay (NCI).

Each structure is given as a SMILES string. Where “and” joins values, the source holds several entries; their conditions need not be identical. Equal values may be shown once.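 Cultured in 96-well plates, cells were exposed to test compound for 48 hours across five concentrations. GI50 marks 50% less growth. The concentration for full growth arrest is given as TGI.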 Where a SMILES comes first, the peptide text is derived from it. The star is where a group is joined. Boc = CC(C)(C)OC(=O)*

Test in all cases: NCI anticancer screen, dose series, 48 h
Experiment [1] deals with A498 renal.
Experiment [2] has as its system HCT-116 colon.
Experiment [3] deals with DU-145 prostate.
The subject of experiment [4] is COLO 205 colon.
Experiment [5] deals with MALME-3M melanoma.
Experiment [6] concerns ACHN renal.
The test system of experiment [7] is TK-10 renal.
The test system of experiment [8] is HL-60(TB) leukemia.
Experiment [9] has as its system SK-MEL-28 melanoma.
The subject of experiment [10] is RXF 393 renal.

Turning to `COc1cc(/C=C\c2cc(OC)c(OC)c(OC)c2)cc(N/C=C\C(=O)c2cc(OC)c(OC)c(OC)c2)c1OC`, the GI50 in experiment [1] is 2.4 µM; in experiment [2] it was 2.78 µM; in [3], 3.64 µM; in experiment [4] it was 2.31 µM; in [5], 2.91 µM; in [6], 3.99 µM. For the same compound, the GI50 in experiment [7] was 5.93 µM; in [8], 3.24 µM; in experiment [9] it was 4.28 µM. Also, the TGI is 7.89 µM in experiment [1]; above 100 µM in [2]; above 100 µM in [3]; 5.7 µM in [4]; above 100 µM in experiment [5]; above 100 µM in [6]. Besides, the TGI in experiment [7] was above 100 µM; in [8], 42.2 µM; in experiment [9], above 100 µM.
For `O=C(CNS(=O)(=O)Cc1ccccc1)NNc1ccccc1`, the TGI in experiment [2] was above 100 µM; in experiment [3], above 100 µM; in experiment [4], 12.4 µM; in experiment [10], above 100 µM; in experiment [5], above 100 µM; in experiment [6], above 100 µM. Further, the TGI in [7], in experiment [8] and in [9] was above 100 µM throughout.
`CC1(Br)Cc2ccccc2C1=O` (stereo unspecified): the TGI was 57.2 µM in experiment [1]; 5.02 µM in experiment [2]; 33.6 µM in experiment [3]; 17.5 µM in [4]; 9.62 µM and 14.1 µM in experiment [5]; 16.8 µM in experiment [6]. Further, the TGI in experiment [7] was 29.8 µM; in [8] it was 6.67 µM and 2.35 µM; in experiment [9], 7.68 µM. For the same compound, the GI50 is 2.01 µM in experiment [2] and 0.495 µM in experiment [8].
Regarding `Clc1nc(Cl)nc(Nc2cccc3ccccc23)n1`, the GI50 in experiment [1] is above 100 µM; in experiment [2] it was 47.1 µM; in experiment [3] it was above 100 µM; in experiment [4] it was above 100 µM; in experiment [5], 76.9 µM; in [6], 92.5 µM. Further, the GI50 in experiment [7], in experiment [8] and in [9] was above 100 µM in each case. The TGI in [1], in experiment [2], in experiment [3], in experiment [4], in experiment [5] and in experiment [6] was above 100 µM in each case. In addition, the TGI in experiment [7], in [8] and in experiment [9] was above 100 µM in each case.
As to `Oc1ccc2ccccc2c1N=Nc1ccc(Br)cc1`, the TGI in experiment [2], in experiment [3], in experiment [4], in experiment [10], in experiment [5] and in experiment [6] was above 100 µM in each case. In addition, the TGI in experiment [7], in experiment [8] and in experiment [9] was above 100 µM each time.
On to `CN(C)CCC(=O)C(=Cc1ccc(O)cc1)C(=O)CCN(C)C`, for which the GI50 in experiment [2] is 44.8 µM; in [3], above 100 µM; in [4] it was 50.9 µM; in [10], above 100 µM; in experiment [5] it was above 100 µM; in experiment [6], above 100 µM. The GI50 in [7], in experiment [8] and in experiment [9] was above 100 µM each time. The TGI in [2], in experiment [3], in [4], in [10], in [5] and in [6] was above 100 µM in each case. The TGI in experiment [7], in experiment [8] and in experiment [9] was above 100 µM each time.
`Oc1ccc(Nc2c3ccccc3nc3occ(Cl)c23)cc1`: the GI50 was 5.85 µM in experiment [2]; 22.4 µM in [3]; 4.12 µM in experiment [4]; 3.83 µM in experiment [10]; 2.13 µM in experiment [5]; 15.2 µM in [6]. Also, the GI50 in experiment [7] was 6.46 µM; in [9], 6.18 µM. The TGI in experiment [2] was above 100 µM; in [3], above 100 µM; in experiment [4] it was above 100 µM; in experiment [10], 70.3 µM; in experiment [5] it was 8.62 µM; in experiment [6], above 100 µM. Also, the TGI in [7] stood at 50.8 µM; in experiment [9], 63.8 µM.
Turning to `COC(=O)C(C)NC(=O)C(CCSC)NC(=O)C(Cc1ccccc1)NC(=O)OC(C)(C)C` (stereo not drawn) (Boc-Phe-Met-Ala-OMe; configuration not given here), the GI50 in experiment [2] was 17.1 µg/mL; in experiment [3], 43.7 µg/mL; in experiment [4], 24.2 µg/mL; in experiment [7] it was 4.41 µg/mL; in [8], 30.2 µg/mL; in [9], 38.9 µg/mL. In addition, the TGI in experiment [3] is above 100 µM; in [4], 47.4 µg/mL and > 100 µM; in experiment [5], above 100 µM; in experiment [6], above 100 µM; in experiment [8], 64.6 µg/mL and > 100 µM; in experiment [9] it was above 100 µM.
